Data set [1] deals with GABAA receptors. The experiment in a line: GABAA receptor [3H]-muscimol radioligand binding assay, rat cortical membranes. The note with it: rat cortex.
Description: A 10 mM stock solution of the tested compound was prepared in DMSO. Serial dilutions of the compound were prepared in 96-well microplates in assay buffers using automated pipetting system epMotion 5070 (Eppendorf). Each compound was tested in 8 concentrations from 10^–3 to 10^–10 M (final concentration). Radioligand binding was performed using tissue rat cortex according to the previous procedure.[22] All assays were carried out in duplicates. 50 μL of working solution of the tested compounds, 50 μL of [^3H]-muscimol (final concentration 2.0 nM), and 150 μL of tissue suspension prepared in assay buffer (50 mM Tris-HCl, pH 7.4) were transferred to polypropylene 96-well microplate using 96-well pipetting station Rainin Liquidator (Mettler-Toledo). […] The microplate was covered with sealing tape, mixed, and incubated for 15 min at 4 °C. The reaction was terminated by rapid filtration through GF/B filter mate. Ten rapid washes with 200 μL of 50 mM Tris buffer (4 °C, pH 7.4) were performed using 96-well FilterMate harvester (PerkinElmer). The filter mates were dried at 37 °C in forced air fan incubator and then solid scintillator MeltiLex was melted on filter mates at 90 °C for 4 min. The radioactivity on the filter was measured in MicroBeta TriLux 1450 scintillation counter (PerkinElmer). […]
The target of data set [2] is T1, hGAT1 (Homo sapiens, UniProt P30531).
T1 construct: expressed in transfected cells
Description: [3H]GABA uptake assay, CHO cells stably expressing hGAT1. The format is cell-based.

Data set [3] deals with normal human astrocytes (NHA). The experiment in a line: WST-1 viability and proliferation assay on normal human astrocytes. The format is cell-based. The note with it: 1–100 μM in culture medium; 24 and 48 h. How it is done:
(§1) Taking into account the presence of BGT1 and GAT3 transporters in astrocytes, we studied the effect of compound 9 on astrocyte viability, proliferation, and homeostasis. Normal human astrocytes (NHA) were treated with 1–100 μM compound 9 in a culture medium. The WST-1 assay was used to determine the number of metabolically active cells after 24 and 48 h of incubation. […] In the next step, a higher concentration (500 μM) of the compound and a longer incubation time (72 h) were applied, and the cells were examined by phase-contrast microscopy. […] Considering the results shown in Figure 6, compound 9 was not cytotoxic toward human astrocytes under in vitro culture conditions.
(§2) Gibco Human Astrocytes (Thermo Fisher Scientific) were maintained in a humidified 5% CO2 incubator at 37 °C. The cells were cultured in Gibco Astrocyte Medium (DMEM with GlutaMAX, N-2 Supplement, and OneShot Fetal Bovine Serum) supplemented with penicillin G (100 U/mL), neomycin (10 μg/mL), and amphotericin B (0.25 μg/mL).
The effect of compound 9 on cell viability and cell proliferation was evaluated using a WST-1 assay (Roche GmbH, Mannheim, Germany) based on the cleavage of the WST-1 reagent into formazan by mitochondrial dehydrogenases in metabolically active (viable) cells. […] The absorbance was measured at 440 and 650 nm using a microplate reader Infinite 200 PRO (TECAN).
On the technique in general: Formazan colour is commonly taken as a measure of viable cells.

Data set [4] deals with T2, hBGT1 E52A+Q299L (Homo sapiens, UniProt P48065, E52A/Q299L).
T2 construct: host or cells: tsA201 cells (transformed HEK293), transient expression
T2 sequence (P48065 1-614 E52A/Q299L): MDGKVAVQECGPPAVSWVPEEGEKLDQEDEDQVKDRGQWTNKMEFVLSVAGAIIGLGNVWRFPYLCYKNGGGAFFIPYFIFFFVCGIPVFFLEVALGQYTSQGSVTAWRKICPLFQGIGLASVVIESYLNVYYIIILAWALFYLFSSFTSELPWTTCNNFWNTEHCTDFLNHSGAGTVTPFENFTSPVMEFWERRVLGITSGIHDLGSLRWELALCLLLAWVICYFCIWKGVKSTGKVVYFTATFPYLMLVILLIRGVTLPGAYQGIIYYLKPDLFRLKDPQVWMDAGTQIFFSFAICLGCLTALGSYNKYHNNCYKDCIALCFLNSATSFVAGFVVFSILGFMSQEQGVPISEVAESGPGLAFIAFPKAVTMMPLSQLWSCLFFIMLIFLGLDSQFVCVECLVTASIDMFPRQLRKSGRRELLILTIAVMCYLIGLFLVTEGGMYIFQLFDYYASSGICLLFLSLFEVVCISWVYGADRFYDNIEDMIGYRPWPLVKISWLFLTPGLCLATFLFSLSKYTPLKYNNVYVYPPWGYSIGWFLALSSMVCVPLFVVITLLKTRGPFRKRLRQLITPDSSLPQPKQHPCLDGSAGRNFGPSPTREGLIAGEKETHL
Description: [3H]GABA uptake assay, hBGT1 double mutant E52A+Q299L in tsA201 cells. It is filed as cell-based. How it is done: To validate the molecular modeling, particularly the crucial interactions with the Glu52 and Gln299 residues, the activity of compound 9 was tested on the following hBGT1 mutants: E52A, E52Y, Q299L, and the double mutant E52A+Q299L (Figure 5 and Table 1).[14]
The CHO cells were placed in 96-well plates (approximately 50,000 cells/well) for about 24 h before the experiment. […] After incubation, cells were washed 3 times with 100 μL/well ice-cold assay buffer, 150 μL/well MicroScint20 (PerkinElmer) was subsequently added before the plate was shaken for at least 1 h. The radioactivity of each well of the plate was measured on a TopCount NXT scintillation counter. […] Data presented are the pooled data of at least three independent experiments with three technical replicates if not stated otherwise in figure legends. Concentration–response curves were fitted by nonlinear regression to the sigmoidal concentration–response model with GraphPad Prism v 9.0.
The tsA201 cell line (a transformed HEK293 cell line) has been described previously and was cultured accordingly.[20] The tsA201 cells used for transient expression of hBGT1 mutants were transfected with DNA constructs (8 μg per 10 cm plate) using 40 μL of PolyFect transfection reagent according to the manufacturer’s protocol (Qiagen). […]

In data set [5] the target is T3, hGAT3 (Homo sapiens, UniProt P48066).
T3 construct: expressed in transfected cells
T3 sequence (P48066 1-632): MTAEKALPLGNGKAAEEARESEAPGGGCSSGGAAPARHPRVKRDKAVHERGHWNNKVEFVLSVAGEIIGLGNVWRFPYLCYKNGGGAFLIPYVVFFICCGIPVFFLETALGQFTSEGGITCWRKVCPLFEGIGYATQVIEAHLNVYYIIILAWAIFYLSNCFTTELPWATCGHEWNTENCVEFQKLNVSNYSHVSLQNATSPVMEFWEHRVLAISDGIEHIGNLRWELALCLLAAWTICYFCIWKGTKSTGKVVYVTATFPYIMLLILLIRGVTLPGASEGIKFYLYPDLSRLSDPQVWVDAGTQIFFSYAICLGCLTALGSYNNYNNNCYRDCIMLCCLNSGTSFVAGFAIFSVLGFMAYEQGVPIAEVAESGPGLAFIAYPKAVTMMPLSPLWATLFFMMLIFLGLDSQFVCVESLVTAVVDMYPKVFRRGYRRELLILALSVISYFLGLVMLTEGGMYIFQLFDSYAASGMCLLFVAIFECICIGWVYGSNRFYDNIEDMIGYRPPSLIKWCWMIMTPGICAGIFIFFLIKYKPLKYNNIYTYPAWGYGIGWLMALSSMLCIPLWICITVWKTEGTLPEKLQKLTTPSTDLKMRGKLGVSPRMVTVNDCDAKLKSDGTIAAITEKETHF
The experiment in a line: [3H]GABA uptake assay, CHO cells stably expressing hGAT3. It is filed as cell-based.

Data set [6] deals with normal human astrocytes (NHA). The experiment in a line: Phase-contrast microscopy of normal human astrocytes in culture medium. The format is cell-based. The note with it: 500 μM in culture medium; 72 h. How it is done:
as §1, §2

A value given as a limit tells only on which side of the number the result lay.

T1 sequence (P30531 whole entry): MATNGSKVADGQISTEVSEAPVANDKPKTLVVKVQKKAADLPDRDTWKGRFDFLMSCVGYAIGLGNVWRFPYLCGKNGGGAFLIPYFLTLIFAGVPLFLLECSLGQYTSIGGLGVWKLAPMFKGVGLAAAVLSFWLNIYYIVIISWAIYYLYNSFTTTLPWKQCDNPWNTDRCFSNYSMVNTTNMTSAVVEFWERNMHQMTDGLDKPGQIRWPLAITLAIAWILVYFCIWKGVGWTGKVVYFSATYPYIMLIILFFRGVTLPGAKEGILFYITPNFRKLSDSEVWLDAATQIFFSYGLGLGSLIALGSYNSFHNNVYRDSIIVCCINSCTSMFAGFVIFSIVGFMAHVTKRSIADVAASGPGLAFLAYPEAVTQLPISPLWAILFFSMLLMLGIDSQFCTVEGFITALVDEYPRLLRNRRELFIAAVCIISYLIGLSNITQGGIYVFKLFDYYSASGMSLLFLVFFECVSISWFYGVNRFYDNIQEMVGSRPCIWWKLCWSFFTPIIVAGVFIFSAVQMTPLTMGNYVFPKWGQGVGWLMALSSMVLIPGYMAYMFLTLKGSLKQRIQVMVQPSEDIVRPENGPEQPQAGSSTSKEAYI

Usually IC50 stands for the concentration that inhibits the measured activity by half. Low values mean higher potency, high ones lower potency. In general, inhibition refers to the share of the control response that was lost under treatment. In the case of `NC12CC(C(=O)O)(C1)C2` [Compound 9], the “displacement of [3H]-muscimol” value in data set [1] (100 μM) was 4%. Besides, the “Ki ± SEM” value in data set [1] ([3H]-muscimol 2.0 nM) is reported as “no affinity ^a”. Further, the IC50 is more than 100 µM in data set [2], more than 1000 µM in data set [4] and 58.3 µM in data set [5]. For the same compound, the “inhibitory effect on [3H]GABA uptake” value in data set [2] (100 μM, CHO cells) is recorded as “no inhibitory effect”. For the same compound, in data set [3], the “effect on astrocyte survival and proliferation (WST-1)” value is “no effect on astrocyte survival and proliferation”. Besides, the “activity at mutant compared with wild type hBGT1” value in data set [4] (E52A+Q299L vs wt) is listed as “no activity”. Besides, the inhibition at 100 µM in data set [5] (CHO, read-out: inhibition of GABA uptake) was approximately 73%. For the same compound, the “astrocyte morphology and confluency” value in data set [6] was “no changes in astrocyte morphology and confluency”.

These data come from article PMC11587516 (ACS Chemical Neuroscience, 2024).
